Results: patent US20080207617A1, “Quinoline Derivatives and Quinazoline Derivatives Inhibiting Autophosphrylation of Flt3 and Medicinal Compositions Containing the Same” (KIRIN BEER KABUSHIKI KAISHA, priority 2002, published 2008)
Counter-ions that a name gives are not always drawn.

Columns and labels:
MOLM13 [1] = experiment: Cell growth inhibitory activities on cultured human leukemia cells MOLM-13 (WST-1); type: cell-based; details: Homo sapiens, MOLM-13, 72 h, 3 days culture
Description: Pharmacological Test Example 4
Cell Growth Inhibitory Activities on Cultured Human Leukemia Cells
(§1) Human leukemia cells MOLM13 (subdivided from Hayashibara Biochemical Laboratories, Inc.) were seeded in an amount of 3×10^3 using a DMEM medium containing 10% fetal calf serum (purchased from GIBCO) in a 96-well flat bottom plate. A solution of a test compound in dimethyl sulfoxide was added to each well and was cultured in a 5% carbon dioxide incubator for 3 days. Three days after the initiation of the culture, 10 μl of a WST-1 solution in Cell Counting Kit (purchased from Wako Pure Chemical Industries, Ltd.) was added to each well for a color reaction. After proper color development, the absorbance was measured with a microplate reader under conditions of measurement wavelength 450 nm and reference wavelength 650 nm. The growth ratio for each well was determined by presuming the absorbance without the addition of the medicament to be 100% growth ratio and the absorbance of the well without seeding of the cells to be 0% growth ratio. The concentration of the test compound was varied on several levels, the cell growth ratio for each case was determined, and the concentration of the test compound necessary for inhibiting 50% of cell growth ratio (IC50) was calculated.

MOLM13 [2] = experiment: Cell growth inhibitory activity using MTT method (MOLM13); type: cell-based, human; details: Homo sapiens, MOLM-13, 72 h, MOLM13 cells
Description: Pharmacological Test Example 3
Measurement of Cell Growth Inhibitory Activity Using MTT Method
Human leukemia cell line MOLM13 (subdivided from Hayashibara Biochemical Laboratories, Inc.) was cultured in an RPMI medium containing 10% fetal calf serum (purchased from Asahi Techno Glass Corporation) within a 5% carbon dioxide incubator until the cell density reached 50 to 90% of the maximum cell density. These cells were seeded into wells, containing an RPMI medium containing 10% fetal calf serum, in a 96-well flat bottom plate in an amount of […] per well. The amount of the solution of the medium in each well was brought to 100 μl, and a test compound was added thereto to 500 ng, 100 ng, 20 ng, and 4 ng per ml. After culture within an incubator for 72 hr, 10 μl of a 5 mg/ml MTT (3-(4,5-dimethylthiazol-2-yl)-2,5-diphenyl tetrazolium bromide) solution (purchased from SIGMA) was added to the medium, and a reaction was allowed to proceed for 4 hr. Thereafter, 100 μl of a 0.04 N hydrochloric acid-isopropanol solution was added to completely dissolve the resultant MTT formazan crystal. After the dissolution, absorbance at 550 nm was measured using 620 nm as a reference wavelength with a microplate reader (DIGISCAN) (It is regarded that, in the MTT method, the viable cell count is reflected, and linearity is observed in a cell count per well range of 5×10^5 to 2×10^2 cells). After 72 hr, the absorbance of only the medium free from cells was subtracted from the absorbance of the well without the addition of the test compound to determine a value which was presumed to be 100%. On the other hand, the absorbance with the addition of the compound was expressed in terms of % growth.

MV4-11 = experiment: Cell growth inhibitory test MV4-11 (WST-1); type: cell-based, human; details: Homo sapiens, MV4-11, 72 h, MV4-11 cells, 3 days culture
Description: Pharmacological Test Example 2
Cell Growth Inhibitory Test
MV4-11 (ATCC number: CRL-9591) as human leukemia cells was seeded in an amount of 3×10^3 using a DMEM medium containing 10% fetal calf serum (purchased from GIBCO) in a 96-well flat bottom plate.
as §1, with “A” for “Human leukemia cells MOLM13 (subdivided from Hayashibara Biochemical Laboratories, Inc.) were seeded in an amount of 3×10^3 using a DMEM medium containing 10% fetal calf serum (purchased from GIBCO) in a 96-well flat bottom plate. A”

SMILES | IC50 (MOLM13 [1]) | IC50 (MOLM13 [2]) | IC50 (MV4-11)
COc1cc2nccc(Oc3ccc(NC(=O)NCCC4CCCCC4)cc3F)c2cc1OC [Compound 16, 1-(2-Cyclohexyl-ethyl)-3-[4-(6,7-dimethoxy-quinolin-4-yloxy)-3-fluoro-phenyl]-urea] | 7 nM | 18.8 nM | 4 nM
COc1cc2nccc(Oc3ccc(NC(=O)NCC(C)(C)C)cc3)c2cc1OC [Compound 32, 1-[4-(6,7-Dimethoxy-quinolin-4-yloxy)-phenyl]-3-(2,2-dimethyl-propyl)-urea] | 314 nM | – | 201 nM
COc1cc(Oc2ccnc3cc(OC)c(OC)cc23)ccc1NC(=O)NCCC(C)(C)C [Compound 4, 1-[4-(6,7-Dimethoxy-quinolin-4-yloxy)-2-methoxy-phenyl]-3-(3,3-dimethyl-butyl)-urea] | 653 nM | – | 889 nM
CCCNC(=O)Nc1ccc(Oc2ccnc3cc(OC)c(OC)cc23)cc1 [Compound 21, 1-[4-(6,7-Dimethoxy-quinolin-4-yloxy)-phenyl]-3-propyl-urea] | 22 nM | – | 31 nM
COc1cc2nccc(Oc3ccc(NC(=O)NC(C)C)cc3)c2cc1OC [Compound 20, 1-[4-(6,7-Dimethoxy-quinolin-4-yloxy)-phenyl]-3-isopropyl-urea] | 39 nM | – | 31 nM
CCCCCCNC(=O)Nc1ccc(Oc2ccnc3cc(OC)c(OC)cc23)cc1 [Compound 22, 1-[4-(6,7-Dimethoxy-quinolin-4-yloxy)-phenyl]-3-hexyl-urea] | 7 nM | – | 4 nM
COc1cc2nccc(Oc3ccc(NC(=O)NCCCC(C)(C)C)cc3)c2cc1OC [Compound 35, 1-[4-(6,7-Dimethoxy-quinolin-4-yloxy)-phenyl]-3-(4,4-dimethyl-pentyl)-urea] | 3 nM | – | < 1 nM
CNC(=O)Nc1ccc(Oc2ccnc3cc(OC)c(OC)cc23)cc1 [Compound 27, 1-[4-(6,7-Dimethoxy-quinolin-4-yloxy)-phenyl]-3-methyl-urea] | 45 nM | – | 32 nM
CCNC(=O)Nc1ccc(Oc2ccnc3cc(OC)c(OC)cc23)cc1 [Compound 28, 1-[4-(6,7-Dimethoxy-quinolin-4-yloxy)-phenyl]-3-ethyl-urea] | 26 nM | – | 19 nM
COc1cc2nccc(Oc3ccc(NC(=O)NCCC(C)(C)C)c(C)c3)c2cc1OC [Compound 2, 1-[4-(6,7-Dimethoxy-quinolin-4-yloxy)-2-methyl-phenyl]-3-(3,3-dimethyl-butyl)-urea] | 770 nM | – | 395 nM
COc1cc2nccc(Oc3ccc(NC(=O)NCCC(C)(C)C)c(F)c3)c2cc1OC [Compound 9, 1-[4-(6,7-Dimethoxy-quinolin-4-yloxy)-2-fluoro-phenyl]-3-(3,3-dimethyl-butyl)-urea hydrochloride] | 24 nM | – | 8 nM
COc1cc2nccc(Oc3ccc(NC(=O)NCCCC4CCCCC4)cc3)c2cc1OC [Compound 33, 1-(3-Cyclohexyl-propyl)-3-[4-(6,7-dimethoxy-quinolin-4-yloxy)-phenyl]-urea] | 4 nM | – | 8 nM
COc1cc2nccc(Oc3ccc(NC(=O)NCCN(C)C)cc3)c2cc1OC [Compound 25, 1-[4-(6,7-Dimethoxy-quinolin-4-yloxy)-phenyl]-3-(2-dimethylamino-ethyl)-urea] | 258 nM | – | 66 nM
COc1cc2nccc(Oc3ccc(NC(=O)NCCC4CCCCC4)cc3)c2cc1OC [Compound 31, 1-(2-Cyclohexyl-ethyl)-3-[4-(6,7-dimethoxy-quinolin-4-yloxy)-phenyl]-urea] | 2 nM | – | 2 nM
COc1cc2nccc(Oc3ccc(NC(=O)NCCCC(C)C)cc3)c2cc1OC [Compound 34, 1-[4-(6,7-Dimethoxy-quinolin-4-yloxy)-phenyl]-3-(4-methyl-pentyl)-urea] | 2 nM | – | < 1 nM

Now from value to molecule:

IC50 (MOLM13 [1]) | IC50 (MOLM13 [2]) | IC50 (MV4-11) | SMILES
20 nM | 21.5 nM | 6 nM | COc1cc2c(Oc3ccc(NC(=O)NCCC(C)C)c(F)c3)ccnc2cc1OCCN1CCOCC1 [Compound 73, 1-{2-Fluoro-4-[6-methoxy-7-(2-morpholin-4-yl-ethoxy)-quinolin-4-yloxy]-phenyl}-3-(3-methyl-butyl)-urea]
8 nM | 54.5 nM | 3 nM | COc1cc2c(Oc3ccc(NC(=O)NCCC4CCCCC4)c(F)c3)ccnc2cc1OCCN1CCOCC1 [Compound 72, 1-(2-Cyclohexyl-ethyl)-3-{2-fluoro-4-[6-methoxy-7-(2-morpholin-4-yl-ethoxy)-quinolin-4-yloxy]-phenyl}-urea]
10 nM | 19.7 nM | 3 nM | COc1cc2c(Oc3ccc(NC(=O)NCCC(C)(C)C)cc3)ccnc2cc1OCCCN1CC(C)CC(C)C1 (stereo not drawn) [Compound 54, 1-(3,3-Dimethyl-butyl)-3-(4-{7-[3-(3,5-dimethyl-piperidin-1-yl)-propoxy]-6-methoxy-quinolin-4-yloxy}-phenyl)-urea]
60 nM | 135 nM | 51 nM | CCN(CC)CCCOc1cc2nccc(Oc3ccc(NC(=O)NCCC(C)(C)C)c(Cl)c3)c2cc1OC [Compound 47, 1-{2-Chloro-4-[7-(3-diethylamino-propoxy)-6-methoxy-quinolin-4-yloxy]-phenyl}-3-(3,3-dimethyl-butyl)-urea]
188 nM | – | 184 nM | COc1cc2c(Oc3ccc(NC(=O)NCCC(C)(C)C)c(Cl)c3)ccnc2cc1OCCCN1CCC(C)CC1 [Compound 52, 1-(2-Chloro-4-{6-methoxy-7-[3-(4-methyl-piperidin-1-yl)-propoxy]-quinolin-4-yloxy}-phenyl)-3-(3,3-dimethyl-butyl)-urea]
224 nM | – | 207 nM | COc1cc2c(Oc3ccc(NC(=O)NCCC(C)(C)C)c(Cl)c3)ccnc2cc1OCCC1CCNCC1 [Compound 49, 1-{2-Chloro-4-[6-methoxy-7-(2-piperidin-4-yl-ethoxy)-quinolin-4-yloxy]-phenyl}-3-(3,3-dimethyl-butyl)-urea]
3 nM | – | < 1 nM | COc1cc2nccc(Oc3ccc(NC(=O)NCCC(C)(C)CO)cc3)c2cc1OC [Compound 39, 1-[4-(6,7-Dimethoxy-quinolin-4-yloxy)-phenyl]-3-(4-hydroxy-3,3-dimethyl-butyl)-urea]
216 nM | – | 211 nM | COc1cc2c(Oc3ccc(NC(=O)NCCC(C)(C)C)c(Cl)c3)ccnc2cc1OCCN1CCC(C)CC1 [Compound 51, 1-(2-Chloro-4-{6-methoxy-7-[2-(4-methyl-piperidin-1-yl)-ethoxy]-quinolin-4-yloxy}-phenyl)-3-(3,3-dimethyl-butyl)-urea]
38 nM | – | 47 nM | COc1cc2nccc(Oc3ccc(NC(=O)NCCC(C)(C)C)c([N+](=O)[O-])c3)c2cc1OC [Compound 37, 1-[2-Nitro-4-(6,7-dimethoxy-quinolin-4-yloxy)-phenyl]-3-(3,3-dimethyl-butyl)-urea]
< 1 nM | – | < 1 nM | COc1cc2c(Oc3ccc(NC(=O)NCCC(C)(C)C)cc3)ccnc2cc1OCCN1CCOCC1 [Compound 66, 1-(3,3-Dimethyl-butyl)-3-{4-[6-methoxy-7-(2-morpholin-4-yl-ethoxy)-quinolin-4-yloxy]-phenyl}-urea]
27 nM | – | 15 nM | COc1cc2c(Oc3ccc(NC(=O)NCCC4CCCCCC4)c(F)c3)ccnc2cc1OCCN1CC(C)OC(C)C1 (stereo not drawn) [Compound 71, 1-(2-Cycloheptyl-ethyl)-3-(4-{7-[2-(2,6-dimethyl-morpholin-4-yl)-ethoxy]-6-methoxy-quinolin-4-yloxy}-2-fluoro-phenyl)-urea]
